Source: patent US7763660B2, “Inhibitors of Candida albicans” (The University of Vermont and State Agricultural College, priority 2003, dated 2010)

Assays:
C. albicans cells = test: small molecule screen for inhibitors of the Spider media-induced budded-to-hyphal transition; type: cell-based, Candida albicans
Experimental: For the screen, C. albicans cells were grown in YNB media that inhibits hyphal growth and then transferred to 384-well optical plates containing Spider media to induce the budded-to-hyphal transition and hyphal elongation. […] In FIG. 3, the indicated small molecules were added at the indicated concentrations at time 0 and growth was allowed to continue for 4 h at 37° C. before the cells were fixed and observed microscopically. YNB media is well known in the art and contains yeast nitrogen base (DIFCO Labs.), glucose (US Biological) and d-H2O. Spyder media is well known in the art and contains nutrient broth (DIFCO Labs.), mannitol (Sigma-Aldrich), K2HPO4 (Sigma-Aldrich) and d-H2O.
Next, small molecules were assayed for their ability to inhibit the Spider media-induced hyphal growth.
The basic microscopic screen was described in detail above. To identify inhibitors, C. albicans cells are initially grown in YNB media that inhibits hyphal growth and then transferred to 384-well optical assay plates containing Spider media to induce the transition to hyphae. Individual molecules from the Chembridge small molecule library (Kao, R. Y. T., et al., 2002, Proc. Natl. Acad. Sci. USA 99: 10066-10071), or other library, are transferred from a 384-well plate containing stock solutions to individual wells of the assay plates. For convenience, positive and negative controls may be located at each corner of the plate. These plates are incubated at 37° C. for 4 h to allow for hyphal elongation before the cells are fixed and screened. Screening occurs on an inverted Nikon microscope with a computer driven XY stage with DIC/Hoffman optics, digital SPOT® camera and automatic shutter. Pictures are automatically taken of each well with the plate number and well position embedded in the picture through a script written for OpenLab® image analysis software from Improvision (INVIVO, from QED Imaging, Inc.). Inhibitory molecules are identified by rapidly screening a picture of each well for the presence of budded cells and absence of hyphal cells. Each inhibitor is retested at both 4 h and 16 h to eliminate those compounds that are cytotoxic, delay hyphal formation, or delay elongation through a growth defect. Molecules that give consistent inhibition of the budded-to-hyphal transition with continued budded growth with no hyphae out to 16 are further characterized as described below. A dose-response for each molecule is established through serial dilutions in order to determine the threshold concentration of each molecule. Typical threshold concentrations range from about 1 to about 100 micromolar (μM). In addition, the reversibility of each molecule is tested by washing out the molecule and adding fresh Spider media; cells that resume hyphal growth indicate that the molecule is reversible in action and that the molecule's initial effects were not due to cytotoxicity.

[1] = Scott, V. R., et al., 1988; cited from earlier work

Row | Structure (SMILES) | dose-dependence of the inhibition (C. albicans cells) | reversibility of the inhibition (C. albicans cells) | inhibition of the budded-to-hyphal transition and hyphal growth (C. albicans cells; 0.1 μM, 4 h at 37° C.) | inhibition of the budded-to-hyphal transition and hyphal growth (C. albicans cells; 1.6 μM added at time 0, 4 h at 37° C.) | cell phenotype in the screen (C. albicans cells; 4 h at 37° C. (FIG. 3)) | cytotoxicity in the screen (C. albicans cells; 4 h at 37° C. (FIG. 3)) | anti-fungal activity [1]
1 | C/C1=C/C(=O)O[C@@H]2C[C@@H](CC[C@H](C)/C=C\C=C\CC1)O[C@@](O)([C@@H]1CSC(=O)N1)C2 [Lat A, latrunculin-A] | dose-dependent | reversible | effect was lost | inhibited the budded-to-hyphal transition and hyphal growth |  |  | 
2 | C/C1=C\[C@H](C)C[C@H](C)OC(=O)C[C@H](c2ccc(O)cc2)NC(=O)[C@@H](Cc2c(Br)[nH]c3ccccc23)N(C)C(=O)[C@H](C)NC(=O)[C@@H](C)C1 [jasplakinolide] |  |  |  |  | apparent cell-cycle arrest as small budded cells | dose-dependent cytotoxic molecule | previously shown to have anti-fungal activity
